Assay results from ChEMBL document CHEMBL1126661, “Oxidation chemistry of the endogenous central nervous system alkaloid salsolinol-1-carboxylic acid” (J Med Chem, 1993).

Tested on: Mus musculus
Experiment: Compound was evaluated for its lethal dose (LD50) by dissolving in 5 microL of isotonic saline and injected intracranially in mice which resulted in the death of 50% of the treated animals within 1 hour
Type: ADME, organism-based
Details: in vivo, other

Row | Structure (SMILES) | LD50 [µg]
1 | CC1=NCCc2c1cc(O)c(O)c2O | 38.9
2 | CC1=NCCc2cc(O)c(O)cc21 | 31.1
